Here are results for five compounds from PMC7532004, “Site-specific effects of neurosteroids on GABAA receptor activation and desensitization” (eLife, 2020).

Values joined by “and” are separate entries in the source; they are usually repeats but may differ in a detail not shown here. Identical values can stand only once.

This assay has as its target T1, α1β3 GABAAR (UniProt P28472+P62813).
T1 construct: expressed in transfected cells; host or cells: Xenopus laevis oocytes injected with cRNA (α1:β3 5:1)
Nature of the assay: Two-electrode voltage clamp in Xenopus laevis oocytes, WT receptor. Type of assay: cell-based. To be noted: for Potentiation of GABA-elicited currents: 0.3 μM GABA, 10 μM neurosteroid, oocytes; for % of desensitization (reduction of steady-state current): 1 mM GABA, 3β5αP 3 μM, KK148 10 μM, KK150 10 μM, WT. As to the method: The wild-type and mutant α1β3 GABAAR were expressed in oocytes from the African clawed frog (Xenopus laevis). Frogs were purchased from Xenopus 1 (Dexter, MI), and housed and cared for in a Washington University Animal Care Facility under the supervision of the Washington University Division of Comparative Medicine. Harvesting of oocytes was conducted under the Guide for the Care and Use of Laboratory Animals as adopted and promulgated by the National Institutes of Health. The animal protocol (No. 20180191) was approved by the Animal Studies Committee of Washington University in St. Louis. The oocytes were injected with a total of 12 ng cRNA. The ratio of cRNAs was 5:1 ratio (α1:β3) to minimize the expression of β3 homomeric receptors. Following injection, the oocytes were incubated in ND96 (96 mM NaCl, 2 mM KCl, 1.8 mM CaCl2, 1 mM MgCl2, 5 mM HEPES; pH 7.4) with supplements (2.5 mM Na pyruvate, 100 U/ml penicillin, 100 μg/ml streptomycin and 50 μg/ml gentamycin) at 16°C for 2 days prior to conducting electrophysiological recordings. The electrophysiological recordings were conducted at room temperature using standard two-electrode voltage clamp. The oocytes were clamped at −60 mV. The chamber (RC-1Z, Warner Instruments, Hamden, CT) was perfused with ND96 at 5–8 ml/min. Solutions were gravity-applied from 30 ml glass syringes with glass luer slips via Teflon tubing. The current responses were amplified with an OC-725C amplifier (Warner Instruments, Hamden, CT), digitized with a Digidata 1200 series digitizer (Molecular Devices), and stored using pClamp (Molecular Devices). Current traces were analyzed with Clampfit (Molecular Devices). […] The stock solution of muscimol was made at 20 mM in ND96 and stored at 4°C. The steroids were dissolved in DMSO at 10–20 mM and stored at room temperature.
The converted current traces were analyzed in the framework of the three-state Resting-Open-Desensitized activation model ([Germann et al., 2019a]; [Germann et al., 2019b]). The model enables analysis and prediction of peak responses using four parameters that characterize the extent of constitutive activity (termed L; L = Resting/Open), affinity of the resting receptor to agonist (KC), affinity of the open receptor to agonist (KO), and the number of agonist binding sites (N). Analysis and prediction of steady-state responses requires an additional parameter, termed Q, that describes the equilibrium between open and desensitized receptors (Q = Open/Desensitized).
The Popen of the peak response is expressed as: Popen,peak=1/1+LΓ and the Popen of the steady-state response as: Popen,steady−state=1/1+1/Q+LΓ where Γ=[(1+[X]/KC)/(1+[X]/KO)]^N
[X]is the concentration of agonist present, and other terms are as described above. In practice, the value of LΓ was calculated using the experimentally determined Popen of the peak response, and then used as a fixed value in estimating Q from Popen,steady-state.
The Pdesensitized was calculated using: Pdesensitized=1/1+Q+QLΓ
Calculated probabilities (e.g. Popen, Pdesentitized) are reported as mean ± SD.
(In general: Two-electrode voltage clamp holds a large cell at a set potential and records current.)

T1 sequence (P62813 28-455): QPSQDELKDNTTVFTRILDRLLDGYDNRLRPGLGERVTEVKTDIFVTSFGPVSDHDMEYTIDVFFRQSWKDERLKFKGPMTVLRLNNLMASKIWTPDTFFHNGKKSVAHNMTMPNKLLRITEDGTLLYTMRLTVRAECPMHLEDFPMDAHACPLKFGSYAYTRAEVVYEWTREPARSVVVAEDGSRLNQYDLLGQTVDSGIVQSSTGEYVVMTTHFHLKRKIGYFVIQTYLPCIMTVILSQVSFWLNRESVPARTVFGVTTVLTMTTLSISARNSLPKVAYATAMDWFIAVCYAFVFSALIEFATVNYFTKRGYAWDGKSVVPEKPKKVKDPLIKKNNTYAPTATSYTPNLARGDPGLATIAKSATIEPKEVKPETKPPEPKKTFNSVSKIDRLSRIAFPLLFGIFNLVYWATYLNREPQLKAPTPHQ
T1 sequence (P28472 26-473): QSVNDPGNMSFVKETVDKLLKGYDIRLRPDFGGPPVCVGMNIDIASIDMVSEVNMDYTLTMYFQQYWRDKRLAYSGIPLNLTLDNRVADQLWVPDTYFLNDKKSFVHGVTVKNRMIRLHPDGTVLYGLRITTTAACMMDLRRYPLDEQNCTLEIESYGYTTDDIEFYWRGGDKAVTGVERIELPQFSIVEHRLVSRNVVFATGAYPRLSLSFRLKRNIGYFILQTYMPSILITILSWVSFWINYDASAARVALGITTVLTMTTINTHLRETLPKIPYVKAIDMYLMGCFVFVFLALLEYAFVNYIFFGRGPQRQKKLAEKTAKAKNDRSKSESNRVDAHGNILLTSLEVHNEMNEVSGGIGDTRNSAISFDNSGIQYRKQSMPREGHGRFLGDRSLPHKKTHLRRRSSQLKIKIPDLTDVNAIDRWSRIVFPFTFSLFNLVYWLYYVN

Take `C#CCCO[C@@H]1CC[C@H]2[C@@H]3CC[C@H]4CC5(CC[C@]4(C)[C@H]3CC[C@]12C)N=N5` [KK150]: the “Potentiation of GABA-elicited currents” value is on record as “absence of potentiation” and the “% of desensitization (reduction of steady-state current)” value is reported as 2.1 ± 0.7%.

Take `NCc1cc(=O)[nH]o1` [muscimol]: the “Peak Popen” value (20 nM muscimol) worked out at 0.012 ± 0.004. Under “20 nM muscimol alone”, the “Calculated steady-state Pdesensitized” value was 0.1001 and the “Steady-state Popen” value worked out at 0.011 ± 0.004.

In the case of `CC(=O)[C@H]1CC[C@H]2[C@@H]3CC[C@H]4C[C@@H](O)CC[C@]4(C)[C@H]3CC[C@]12C` [3β5αP, epi-allopregnanolone], the “Potentiation of GABA-elicited currents” value was “absence of potentiation”; the “% of desensitization (reduction of steady-state current)” value is ~ 25% and 23.0 ± 2.8%. In addition, under “20 nM muscimol + 3 µM 3β5αP”, the “Calculated steady-state Pdesensitized” value is on record as 0.2168 and the “Steady-state Popen” value turned out to be 0.009 ± 0.004. For the same compound, where the note is “1 mM GABA + 3 µM 3β5αP”, the “Popen of the steady-state response” value is recorded as 0.077 ± 0.013 and the “Sum of (Popen + Pdesensitized)” value was found to be 0.97. Also, the “Steady-state Pdesensitized” value (1 mM GABA + 3 µM 3β5αP, Resting-Open-Desensitized model) was found to be 0.892. Besides, the “Effect on peak current amplitude” value (co-application of 3 µM 3β5αP with 1 mM GABA) is on record as “does not reduce”. In addition, the “Effect on decay rate of GABA-elicited currents” value (prolonged co-application of 1 mM GABA + 3 µM 3β5αP) was “increases”.

`CC(=O)[C@H]1CC[C@H]2[C@@H]3CC[C@H]4C[C@H](O)CC[C@]4(C)[C@H]3CC[C@]12C` [3α5αP, allopregnanolone]: the “Potentiation of GABA-elicited currents” value is recorded as “potentiation”.

As to `C#CCCO[C@H]1CC[C@H]2[C@@H]3CC[C@H]4CC5(CC[C@]4(C)[C@H]3CC[C@]12C)N=N5` [KK148], the “Potentiation of GABA-elicited currents” value is on record as “absence of potentiation” and the “% of desensitization (reduction of steady-state current)” value worked out at 27.2 ± 6.0%.
